Source: patent US11214565B2, “Compound, compositions, and methods” (Denali Therapeutics Inc., priority 2015, dated 2022)

What follows are compounds tested against LRRK2 G2019S enzyme (Homo sapiens (Human), UniProt Q5S007, G2019S) (assay: LRRK2 G2019S TR-FRET biochemical kinase assay (LRRKtide substrate)). Conditions: Table C-2; 5 nM LRRK2, 134 μM ATP, 60 minute reaction, 23° C.
Summary of the method: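 5 nM LRRK2 G2019S preincubated 20 min with LRRKtide and compound (3.162-fold dilution series) in Tris pH 7.5, MgCl2, EGTA, Brij-35, DTT, then reacted 60 min at 23 °C with 134 μM ATP. EDTA-stopped; pLRRKtide antibody detection, TR-FRET read at 340 nm excitation, 520/490–495 nm emission.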

LRRK2 G2019S enzyme, sequence (Q5S007 whole entry G2019S): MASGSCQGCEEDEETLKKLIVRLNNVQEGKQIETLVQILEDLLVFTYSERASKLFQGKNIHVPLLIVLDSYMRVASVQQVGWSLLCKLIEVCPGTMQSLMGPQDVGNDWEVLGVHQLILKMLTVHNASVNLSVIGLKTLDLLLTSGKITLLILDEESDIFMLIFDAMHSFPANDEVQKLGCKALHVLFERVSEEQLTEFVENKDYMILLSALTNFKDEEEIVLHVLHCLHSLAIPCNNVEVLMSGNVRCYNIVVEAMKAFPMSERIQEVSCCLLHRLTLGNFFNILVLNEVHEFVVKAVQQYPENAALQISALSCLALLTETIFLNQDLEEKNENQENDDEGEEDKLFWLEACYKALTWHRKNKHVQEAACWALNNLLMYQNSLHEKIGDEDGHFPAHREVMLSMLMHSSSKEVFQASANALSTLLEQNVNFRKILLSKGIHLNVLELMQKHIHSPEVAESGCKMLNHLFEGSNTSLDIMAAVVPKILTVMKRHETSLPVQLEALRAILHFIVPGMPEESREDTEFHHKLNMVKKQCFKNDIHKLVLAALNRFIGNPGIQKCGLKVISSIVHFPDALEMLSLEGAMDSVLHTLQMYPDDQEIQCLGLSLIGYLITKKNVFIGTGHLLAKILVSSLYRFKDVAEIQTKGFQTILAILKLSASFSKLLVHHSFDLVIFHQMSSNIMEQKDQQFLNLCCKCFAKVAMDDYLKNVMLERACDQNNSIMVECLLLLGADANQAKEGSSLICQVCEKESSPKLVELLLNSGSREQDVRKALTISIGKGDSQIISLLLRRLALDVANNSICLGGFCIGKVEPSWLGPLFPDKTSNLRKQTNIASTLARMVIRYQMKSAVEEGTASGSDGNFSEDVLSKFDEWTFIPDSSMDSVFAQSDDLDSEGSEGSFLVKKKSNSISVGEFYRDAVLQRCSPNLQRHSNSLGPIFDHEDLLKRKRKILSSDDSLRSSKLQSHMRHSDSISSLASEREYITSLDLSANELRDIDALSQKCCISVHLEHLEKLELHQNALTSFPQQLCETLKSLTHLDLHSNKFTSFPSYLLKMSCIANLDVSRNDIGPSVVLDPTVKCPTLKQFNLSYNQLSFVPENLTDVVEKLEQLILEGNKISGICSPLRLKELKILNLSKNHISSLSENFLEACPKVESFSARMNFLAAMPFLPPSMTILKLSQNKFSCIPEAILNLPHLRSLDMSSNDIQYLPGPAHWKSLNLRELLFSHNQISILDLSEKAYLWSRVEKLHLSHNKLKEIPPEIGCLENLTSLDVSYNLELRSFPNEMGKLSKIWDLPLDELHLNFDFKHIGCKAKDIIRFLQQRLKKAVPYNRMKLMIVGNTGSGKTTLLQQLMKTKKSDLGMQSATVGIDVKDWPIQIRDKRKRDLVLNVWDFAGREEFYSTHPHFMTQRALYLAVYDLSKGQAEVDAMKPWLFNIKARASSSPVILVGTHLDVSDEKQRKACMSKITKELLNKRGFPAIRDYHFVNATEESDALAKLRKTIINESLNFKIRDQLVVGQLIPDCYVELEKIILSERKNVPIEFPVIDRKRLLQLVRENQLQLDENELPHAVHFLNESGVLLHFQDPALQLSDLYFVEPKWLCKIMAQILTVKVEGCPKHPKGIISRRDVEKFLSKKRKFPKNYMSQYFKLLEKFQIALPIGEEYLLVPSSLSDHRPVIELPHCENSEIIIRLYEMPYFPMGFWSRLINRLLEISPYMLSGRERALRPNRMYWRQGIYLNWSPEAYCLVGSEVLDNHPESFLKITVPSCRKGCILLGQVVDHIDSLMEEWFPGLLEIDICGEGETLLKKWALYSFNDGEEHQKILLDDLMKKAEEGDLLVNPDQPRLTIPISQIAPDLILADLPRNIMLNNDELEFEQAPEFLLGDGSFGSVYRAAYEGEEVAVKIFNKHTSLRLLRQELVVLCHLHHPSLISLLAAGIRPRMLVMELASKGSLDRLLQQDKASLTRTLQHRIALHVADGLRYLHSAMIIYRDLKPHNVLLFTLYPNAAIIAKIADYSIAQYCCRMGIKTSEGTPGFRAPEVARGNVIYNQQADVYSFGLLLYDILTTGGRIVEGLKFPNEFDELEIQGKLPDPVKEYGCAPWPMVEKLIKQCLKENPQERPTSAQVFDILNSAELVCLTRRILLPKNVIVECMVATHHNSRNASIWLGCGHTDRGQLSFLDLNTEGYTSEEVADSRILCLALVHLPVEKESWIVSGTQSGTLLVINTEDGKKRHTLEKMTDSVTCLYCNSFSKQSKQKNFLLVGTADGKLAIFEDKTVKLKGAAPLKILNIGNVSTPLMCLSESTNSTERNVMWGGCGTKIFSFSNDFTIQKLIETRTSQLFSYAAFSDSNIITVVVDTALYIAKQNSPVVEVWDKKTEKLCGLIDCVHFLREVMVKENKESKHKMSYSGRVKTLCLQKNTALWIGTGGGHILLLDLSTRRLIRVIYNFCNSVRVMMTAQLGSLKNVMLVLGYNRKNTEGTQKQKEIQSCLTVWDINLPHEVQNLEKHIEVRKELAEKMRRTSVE

`Cn1ccc(Nc2cc(C3CC3)c3c(C#N)c[nH]c3n2)n1` [Compound C-21, 4-cyclopropyl-6-((1-methyl-1H-pyrazol-3-yl)amino)-1H-pyrrolo[2,3-b]pyridine-3-carbonitrile] and `Cc1nn(C2CC2)cc1Nc1cc(C2CC2)c2c(C#N)c[nH]c2n1` [Compound C-54] cannot be ordered by IC50: < 50 nM for the first, < 50 nM for the second.

`Cc1nn(C(C)(C)C#N)cc1Nc1nc(C2CC2)c2c(Cl)c[nH]c2n1` [Compound C-22] and `Cc1nn(C(C)(C)C#N)cc1Nc1nc(C2CC2)c2c(C3CC3)c[nH]c2n1` [Compound C-41] cannot be ordered by IC50: < 50 nM for the first, < 50 nM for the second.

`Cc1nn(C(C)(C)C#N)cc1Nc1nc(C2CC2)c2cc[nH]c2n1` [Compound C-23] and `Cc1nn(C)cc1Nc1nc(C2CC2)c2cc[nH]c2n1` [Compound C-24] cannot be ordered by IC50: < 50 nM for the first, < 50 nM for the second.

`Cc1c(Nc2nc(C3CC3)c3cc[nH]c3n2)cnn1C` [Compound C-25] and `Cc1c(Nc2nc(C3CC3)c3cc[nH]c3n2)cnn1C(CF)CF` [Compound C-31] cannot be ordered by IC50: < 50 nM for the first, < 50 nM for the second.

`Cc1nn(C(C)(C)c2ncn(C)n2)cc1Nc1nc(C2CC2)c2c(C#N)c[nH]c2n1` [Compound C-26] and `Cc1nn(C(C)(C)c2ncn(C)n2)cc1Nc1nc(C2CC2)c2c(Cl)c[nH]c2n1` [Compound C-28] cannot be ordered by IC50: < 50 nM for the first, < 50 nM for the second.

`Cc1nn(C(C)(C)c2ncn(C)n2)cc1Nc1nc(C2CC2)c2cc[nH]c2n1` [Compound C-27] and `Cc1nn(C(C)(C)c2ncn(C)n2)cc1Nc1nc(C2CC2)c2c(F)c[nH]c2n1` [Compound C-29] cannot be ordered by IC50: < 50 nM for the first, < 50 nM for the second.

`Cc1nn(C(CF)CF)cc1Nc1nc(C2CC2)c2cc[nH]c2n1` [Compound C-30] and `Cc1nn(C(CF)CF)cc1Nc1nc(C2CC2)c2c(Cl)c[nH]c2n1` [Compound C-55] cannot be ordered by IC50: < 50 nM for the first, < 50 nM for the second.

`Cc1c(Nc2nc(C3CC3)c3c(Cl)c[nH]c3n2)cnn1C(CF)CF` [Compound C-32] and `Cc1c(Nc2nc(C3CC3)c3c(C#N)c[nH]c3n2)cnn1C(F)F` [Compound C-39] cannot be ordered by IC50: < 50 nM for the first, < 50 nM for the second.

`Cc1nc2c(C3CC3)nc(Nc3cnn(C)c3C)nc2[nH]1` [Compound C-33] and `Cc1nc2c(C3CC3)nc(Nc3cn(C)nc3C)nc2[nH]1` [Compound C-34] cannot be ordered by IC50: > 100 nM for the first, > 100 nM for the second.

Compared with `Cc1cn(C)nc1Nc1cc(C2CC2)c2nc[nH]c2n1` [Compound C-35], `Cc1nn(C2(C)CC2)cc1Nc1nc(C2CC2)c2nc[nH]c2n1` [Compound C-36] is lower in IC50: > 100 nM for the first, < 50 nM for the second. The second is the more potent here.

`Cc1nn(C(C)(C)c2ccn(C)n2)cc1Nc1nc(C2CC2)c2nc[nH]c2n1` [Compound C-37] and `Cc1nn(C2CC2)cc1Nc1nc(C2CC2)c2nc[nH]c2n1` [Compound C-50] cannot be ordered by IC50: < 50 nM for the first, < 50 nM for the second.

`Clc1c(Nc2nc(C3CC3)c3nc[nH]c3n2)cnn1CC1CC1` [Compound C-38] and `Cc1nn(CC2CC2)cc1Nc1nc(C2CC2)c2nc[nH]c2n1` [Compound C-52] cannot be ordered by IC50: < 50 nM for the first, < 50 nM for the second.

`Cc1nn(C(F)F)cc1Nc1nc(C2CC2)c2c(C#N)c[nH]c2n1` [Compound C-40] and `Cc1c(Nc2nc(C3CC3)c3c(C#N)c[nH]c3n2)cnn1CCOC(F)F` [Compound C-47] cannot be ordered by IC50: < 50 nM for the first, < 50 nM for the second.

`Cc1nn(C(C)(C)C#N)cc1Nc1nc(C2CC2)c2c(C(F)(F)F)c[nH]c2n1` [Compound C-42] and `Cc1nn(C2CC3CC3C2)cc1Nc1nc(C2CC2)c2c(C#N)c[nH]c2n1` (stereo not drawn) [Compound C-44] cannot be ordered by IC50: < 50 nM for the first, < 50 nM for the second.

`Cc1c(Nc2nc(C3CC3)c3c(C#N)c[nH]c3n2)cnn1C1CC2CC2C1` (stereo not drawn) [Compound C-43] and `Cc1c(Nc2nc(C3CC3)c3nc[nH]c3n2)cnn1C1CC2CC2C1` (stereo not drawn) [Compound C-45] cannot be ordered by IC50: < 50 nM for the first, < 50 nM for the second.

`Cc1nn(C2CC3CC3C2)cc1Nc1nc(C2CC2)c2nc[nH]c2n1` (stereo not drawn) [Compound C-46] and `Cc1c(Nc2nc(C3CC3)c3nc[nH]c3n2)cnn1C1CC1` [Compound C-49] cannot be ordered by IC50: < 50 nM for the first, < 50 nM for the second.

`Cc1c(Nc2nc(C3CC3)c3nc[nH]c3n2)cnn1CCOC(F)F` [Compound C-48] and `Cc1c(Nc2cc(C3CC3)c3c(C#N)c[nH]c3n2)cnn1C1CC1` [Compound C-53] cannot be ordered by IC50: < 50 nM for the first, < 50 nM for the second.

Same assay, conditions: Table D-4; 5 nM LRRK2, 134 μM ATP, 60 minute reaction, 23° C.

`CNc1nc(Nc2cn(CC3(CC#N)CC3)nc2C)ncc1C(F)(F)F` [Compound D-1, 2-(1-((3-methyl-4-((4-(methylamino)-5-(trifluoromethyl)pyrimidin-2-yl)amino)-1H-pyrazol-1-yl)methyl)cyclopropyl)acetonitrile] and `CNc1nc(Nc2cn(CC3(Cn4cncn4)CC3)nc2C)ncc1C(F)(F)F` [Compound D-5, N2-(1-((1-((1H-1,2,4-triazol-1-yl)methyl)cyclopropyl)methyl)-3-methyl-1H-pyrazol-4-yl)-N4-methyl-5-(trifluoromethyl)pyrimidine-2,4-diamine] cannot be ordered by IC50: > 60 nM for the first, > 60 nM for the second.

`CNc1nc(Nc2cnn(C3CCn4ccnc43)c2C)ncc1C(F)(F)F` [Compound D-2, N2-[1-(6,7-dihydro-5H-pyrrolo[1,2-a]imidazol-7-yl)-5-methyl-pyrazol-4-yl]-N4-methyl-5-(trifluoromethyl)pyrimidine-2,4-diamine] and `CNc1nc(Nc2cnn(C3CCc4nnc(C)n4C3)c2C)ncc1C(F)(F)F` [Compound D-7, N4-methyl-N2-[5-methyl-1-(3-methyl-5,6,7,8-tetrahydro-[1,2,4]triazolo[4,3-a]pyridin-6-yl)pyrazol-4-yl]-5-(trifluoromethyl)pyrimidine-2,4-diamine] cannot be ordered by IC50: < 30 nM for the first, < 30 nM for the second.

`CNc1nc(Nc2cnn(CC3(Cn4cncn4)CC3)c2C)ncc1C(F)(F)F` [Compound D-6, N2-(1-((1-((1H-1,2,4-triazol-1-yl)methyl)cyclopropyl)methyl)-5-methyl-1H-pyrazol-4-yl)-N4-methyl-5-(trifluoromethyl)pyrimidine-2,4-diamine] and `CNc1nc(Nc2cnn(CC3(COC)CC3)c2Cl)ncc1C(F)(F)F` [Compound D-12, N2-[5-chloro-1-[[1-(methoxymethyl)cyclopropyl]methyl]pyrazol-4-yl]-N4-methyl-5-(trifluoromethyl)pyrimidine-2,4-diamine] cannot be ordered by IC50: < 30 nM for the first, < 30 nM for the second.

Compared with `CNc1nc(Nc2cn(C3CCc4nnc(C)n4C3)nc2C)ncc1C(F)(F)F` [Compound D-8, N4-methyl-N2-[3-methyl-1-(3-methyl-5,6,7,8-tetrahydro-[1,2,4]triazolo[4,3-a]pyridin-6-yl)pyrazol-4-yl]-5-(trifluoromethyl)pyrimidine-2,4-diamine], `CNc1nc(Nc2cn(C(F)(F)C(N)=O)nc2C)ncc1C(F)(F)F` [Compound D-14, 2,2-difluoro-2-[3-methyl-4-[[4-(methylamino)-5-(trifluoromethyl)pyrimidin-2-yl]amino]pyrazol-1-yl]acetamide] is lower in IC50: > 60 nM for the first, < 30 nM for the second. The second is the more potent here.

`CNc1nc(Nc2cnn(CCOC(F)F)c2C)ncc1C(F)(F)F` [Compound D-9, N2-[1-[2-(difluoromethoxy)ethyl]-5-methyl-pyrazol-4-yl]-N4-methyl-5-(trifluoromethyl)pyrimidine-2,4-diamine] and `CCNc1nc(Nc2cnn(CCOC(F)F)c2C)ncc1C(F)(F)F` [Compound D-15, N2-[1-[2-(difluoromethoxy)ethyl]-5-methyl-pyrazol-4-yl]-N4-ethyl-5-(trifluoromethyl)pyrimidine-2,4-diamine] cannot be ordered by IC50: < 30 nM for the first, < 30 nM for the second.

First: CNc1nc(Nc2cn(CCOC(F)F)nc2C)ncc1C(F)(F)F [Compound D-10, N2-[1-[2-(difluoromethoxy)ethyl]-3-methyl-pyrazol-4-yl]-N4-methyl-5-(trifluoromethyl)pyrimidine-2,4-diamine]
Second: CCNc1nc(Nc2cn(CCOC(F)F)nc2C)ncc1C(F)(F)F [Compound D-16, N2-[1-[2-(difluoromethoxy)ethyl]-3-methyl-pyrazol-4-yl]-N4-ethyl-5-(trifluoromethyl)pyrimidine-2,4-diamine]
The IC50 of the first is higher: 30 to 60 nM for the first, < 30 nM for the second. The second is the more potent here.

`CNc1nc(Nc2cnn(CCOC(F)F)c2Cl)ncc1C(F)(F)F` [Compound D-11, N2-[5-chloro-1-[2-(difluoromethoxy)ethyl]pyrazol-4-yl]-N4-methyl-5-(trifluoromethyl)pyrimidine-2,4-diamine] and `CNc1nc(Nc2cnn(CC(C)OC(F)F)c2C)ncc1C(F)(F)F` [Compound D-17] cannot be ordered by IC50: < 30 nM for the first, < 30 nM for the second.

Compared with `CNc1nc(Nc2cn(C(F)(F)C#N)nc2C)ncc1C(F)(F)F` [Compound D-13, 2,2-difluoro-2-[3-methyl-4-[[4-(methylamino)-5-(trifluoromethyl)pyrimidin-2-yl]amino]pyrazol-1-yl]acetonitrile], `CNc1nc(Nc2cn(C(C)COC(F)F)nc2C)ncc1C(F)(F)F` [Compound D-21, N2-[1-[2-(difluoromethoxy)-1-methyl-ethyl]-3-methyl-pyrazol-4-yl]-N4-methyl-5-(trifluoromethyl)pyrimidine-2,4-diamine] is higher in IC50: < 30 nM for the first, 30 to 60 nM for the second. The first is the more potent here.

`CNc1nc(Nc2cn(CC(C)OC(F)F)nc2C)ncc1C(F)(F)F` [Compound D-18] and `CNc1nc(Nc2cn(C[C@@H](C)OC(F)F)nc2C)ncc1C(F)(F)F` [Compound D-20, N2-[1-[(2R)-2-(difluoromethoxy)propyl]-3-methyl-pyrazol-4-yl]-N4-methyl-5-(trifluoromethyl)pyrimidine-2,4-diamine] cannot be ordered by IC50: > 60 nM for the first, > 60 nM for the second.

`CNc1nc(Nc2cnn(C[C@@H](C)OC(F)F)c2C)ncc1C(F)(F)F` [Compound D-19, N2-[1-[(2R)-2-(difluoromethoxy)propyl]-5-methyl-pyrazol-4-yl]-N4-methyl-5-(trifluoromethyl)pyrimidine-2,4-diamine] and `CNc1nc(Nc2cnn([C@H]3C[C@H](OC(F)F)C3)c2C)ncc1C(F)(F)F` [Compound D-25, trans-N2-[1-[3-(difluoromethoxy)cyclobutyl]-5-methyl-pyrazol-4-yl]-N4-methyl-5-(trifluoromethyl)pyrimidine-2,4-diamine] cannot be ordered by IC50: < 30 nM for the first, < 30 nM for the second.
